Among the test systems are HCT-15 colon; RXF 393 renal; HCT-116 colon; MOLT-4 leukemia; HT29 colon; CAKI-1 renal; SF-295 CNS; A498 renal; UO-31 renal; HOP-92 NSCLC.
Holding throughout (experiment): NCI tumour cell line growth inhibition, 48 h

Molecules are shown by their SMILES.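 Results reflect a 48-hour exposure of cells in 96-well plates to compound at five concentrations. Abbreviation: GI50, concentration required for 50% inhibition of growth. TGI: concentration producing complete growth inhibition.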 Where a SMILES comes first, the peptide text is derived from it. Bridges are numbered along the chain shown (N, C = ends). Roman numbers before positions name the chains, in order. [ ]: non-standard residue; d: D form. The star is where a group is joined. Heptadecanoyl = CCCCCCCCCCCCCCCCC(=O)*; Phg = N[CH](C(=O)O)c1ccccc1

Turning to `CCC(C)(C)c1ccc(Oc2cccc(C(=O)O)c2)cc1`, the TGI was over 100 µM with HCT-15 colon; over 100 µM in the experiment on RXF 393 renal; over 100 µM with HCT-116 colon; 70.7 µM with MOLT-4 leukemia; over 100 µM in the experiment on HT29 colon; over 100 µM with CAKI-1 renal. Further, the TGI with SF-295 CNS, in the experiment on A498 renal and with UO-31 renal was over 100 µM each time.

For `Cc1cccc(C(O)c2ccccn2)c1O` (stereo unspecified), the TGI with HCT-15 colon, with RXF 393 renal, in the experiment on HCT-116 colon, in the experiment with MOLT-4 leukemia, in the experiment with HT29 colon and with CAKI-1 renal was over 100 µM throughout. In addition, the TGI with SF-295 CNS and in the experiment on UO-31 renal was over 100 µM throughout.

Turning to `CO[C@H]1C[C@H](O[C@H]2CC[C@]3(C=O)[C@H]4CC[C@]5(C)[C@@H](C6=CC(=O)OC6)CC[C@]5(O)[C@@H]4CC[C@]3(O)C2)O[C@H](C)[C@H]1O[C@@H]1O[C@H](CO[C@@H]2O[C@H](CO)[C@@H](O)[C@H](O)[C@H]2O)[C@@H](O)[C@H](O)[C@H]1O`, the TGI stood at 0.367 µM with HOP-92 NSCLC; 0.144 µM with HCT-15 colon; 0.0802 µM with RXF 393 renal; 0.0911 µM in the experiment on HCT-116 colon; 1.07 µM in the experiment with MOLT-4 leukemia; 0.188 µM with HT29 colon. In addition, the TGI in the experiment on CAKI-1 renal is 0.0456 µM; with SF-295 CNS, 0.161 µM; in the experiment on A498 renal it was 0.533 µM; in the experiment on UO-31 renal, 0.144 µM.

`CC1=C/C(=C(/c2ccc(O)c(C)c2)c2ccccc2C(=O)O)C=CC1=O`: the TGI was 34.8 µM with HOP-92 NSCLC; 42.7 µM in the experiment on HCT-15 colon; 33.8 µM in the experiment on RXF 393 renal; 32.8 µM with HCT-116 colon; 43.1 µM in the experiment with MOLT-4 leukemia; 42.8 µM in the experiment on HT29 colon. Besides, the TGI in the experiment on CAKI-1 renal came out at 32 µM; with SF-295 CNS it was 44.2 µM; in the experiment on A498 renal, 32.8 µM; in the experiment with UO-31 renal, 33.6 µM.

On to `N#CC(C#N)=Cc1ccc(-c2ccc(-c3nc4ccccc4s3)cc2)s1`, for which the GI50 in the experiment on HCT-15 colon was 15.5 µM; with RXF 393 renal, 40.5 µM; in the experiment on HCT-116 colon, 12.3 µM; in the experiment with MOLT-4 leukemia it was 22.8 µM; with HT29 colon, 29.7 µM; with CAKI-1 renal, 20.9 µM. The GI50 is 22.6 µM in the experiment on SF-295 CNS, 18.7 µM with A498 renal and 13.9 µM in the experiment on UO-31 renal. Besides, the TGI in the experiment with HCT-15 colon was 40 µM; in the experiment with RXF 393 renal it was over 100 µM; in the experiment on HCT-116 colon, 31.1 µM; in the experiment on MOLT-4 leukemia, 68.5 µM; in the experiment with HT29 colon it was over 100 µM; with CAKI-1 renal, 47.4 µM. In addition, the TGI with SF-295 CNS turned out to be 59.1 µM; with A498 renal it was 41.1 µM; in the experiment on UO-31 renal, 30.2 µM.

As to `N.N.N.N.O=S(=O)([O-])[O-].[Co+3].[OH3+].[OH3+]`, the TGI in the experiment with HOP-92 NSCLC, in the experiment with HCT-15 colon, in the experiment on HCT-116 colon, with MOLT-4 leukemia, in the experiment with HT29 colon and in the experiment with SF-295 CNS was over 100 µM in each case. For the same compound, the TGI in the experiment with A498 renal and in the experiment with UO-31 renal was over 100 µM throughout.

Turning to `CCOC(=O)c1cc(Cl)ccc1OC(N)=O`, the TGI with HOP-92 NSCLC, in the experiment on HCT-15 colon, with RXF 393 renal, in the experiment on HCT-116 colon, in the experiment with MOLT-4 leukemia and in the experiment with HT29 colon was over 100 µM throughout. Moreover, the TGI in the experiment on CAKI-1 renal, in the experiment on SF-295 CNS, with A498 renal and in the experiment with UO-31 renal was over 100 µM throughout.

In the case of `O=C(CN1C(=O)c2ccccc2C1=O)OCC1CCCN2CCCCC12` (stereo unspecified), the TGI with HOP-92 NSCLC, with HCT-15 colon, with RXF 393 renal, with HCT-116 colon, in the experiment on MOLT-4 leukemia and with HT29 colon was over 100 µM each time. Moreover, the TGI with CAKI-1 renal, in the experiment on SF-295 CNS, in the experiment on A498 renal and in the experiment with UO-31 renal was over 100 µM throughout.

`CN(C)C(=S)SCc1ccccc1`: the TGI in the experiment on HOP-92 NSCLC, in the experiment on HCT-15 colon, in the experiment with RXF 393 renal, in the experiment with HCT-116 colon, in the experiment on HT29 colon and in the experiment with CAKI-1 renal was over 100 µM in each case. Moreover, the TGI in the experiment with SF-295 CNS, in the experiment with A498 renal and with UO-31 renal was over 100 µM throughout.

Consider `C(=N/Nc1ccccn1)/c1cccnc1`, for which the TGI with HOP-92 NSCLC, with HCT-15 colon, in the experiment with RXF 393 renal, with HCT-116 colon, in the experiment on MOLT-4 leukemia and in the experiment with HT29 colon was over 100 µM in each case. For the same compound, the TGI in the experiment with CAKI-1 renal, with SF-295 CNS, in the experiment on A498 renal and with UO-31 renal was over 100 µM each time.

For the compound `Clc1ccc(CSCc2ccc(Cl)cc2Cl)c(Cl)c1`, the TGI with HOP-92 NSCLC was over 100 µM; in the experiment with HCT-15 colon it was over 100 µM; in the experiment on RXF 393 renal it was 94.2 µM; with HCT-116 colon it was over 100 µM; with MOLT-4 leukemia, over 100 µM; with HT29 colon it was over 100 µM. Further, the TGI in the experiment with CAKI-1 renal, in the experiment with SF-295 CNS, in the experiment with A498 renal and with UO-31 renal was over 100 µM each time.

As to `CC(C)(C)C1=NN=C2c3ccccc3C(=O)C21` (stereo unspecified), the TGI is 63.7 µM in the experiment with HOP-92 NSCLC; over 100 µM in the experiment on HCT-15 colon; over 100 µM in the experiment with RXF 393 renal; over 100 µM in the experiment with HCT-116 colon; 85 µM in the experiment with MOLT-4 leukemia; over 100 µM with HT29 colon. Further, the TGI was over 100 µM with CAKI-1 renal, over 100 µM with SF-295 CNS, 99.5 µM in the experiment on A498 renal and over 100 µM with UO-31 renal.

On to `C/C(=C\c1ccc2c(c1)OCO2)[N+](=O)[O-]`, for which the TGI is 5.53 µM in the experiment on HOP-92 NSCLC; 5.21 µM in the experiment on HCT-15 colon; over 100 µM in the experiment on HCT-116 colon; 1.13 µM in the experiment on MOLT-4 leukemia; 7.21 µM with HT29 colon; 4.41 µM in the experiment with CAKI-1 renal. Moreover, the TGI in the experiment on SF-295 CNS was found to be 6.27 µM; in the experiment on A498 renal it was 24.3 µM.

Take `O=C1c2ccc3ccccc3c2CCC1N1CCCCC1` (stereo unspecified): the TGI with HOP-92 NSCLC is 32.2 µM; in the experiment on HCT-15 colon it was 37.4 µM; in the experiment on RXF 393 renal it was 46.5 µM; in the experiment on HCT-116 colon it was 31.7 µM; in the experiment with HT29 colon, 39 µM; in the experiment on CAKI-1 renal, 29.5 µM. Also, the TGI is 37.9 µM in the experiment with SF-295 CNS and 29.1 µM in the experiment with UO-31 renal.

`CCCCCCCCCCCCCCCCC(=O)N1CCCC1C(=O)NCC(=O)NC(C(=O)N1CCCC1C(=O)NC(CO)C(=O)NC(Cc1ccc(O)cc1)C(=O)NC(CCCCNC(=O)C1CCCN1C(=O)C(CCCCN)NC(=O)C(CCCCN)NC(=O)C(CCCCN)NC(=O)C(CCCNC(=N)N)NC(=O)C(CCCCN)NC(=O)C(N)C(C)C)C(=O)NC(CC(C)C)C(=O)NC(CCCNC(=N)N)C(=O)N1CCCC1C(=O)NCC(N)=O)c1ccccc1` (stereo unspecified) (I: Heptadecanoyl-PG[Phg]PSYKLRPG-NH2 / II: H-VKRKKKP; amide I:7-II:C; configuration not given here): the GI50 was 30.4 µM in the experiment with HOP-92 NSCLC; 36.8 µM in the experiment with RXF 393 renal; 13 µM with HCT-116 colon; 16.3 µM with MOLT-4 leukemia; 29.6 µM in the experiment with HT29 colon; 22.9 µM in the experiment on CAKI-1 renal. For the same compound, the GI50 is 25 µM with SF-295 CNS, 76.3 µM in the experiment with A498 renal and 32.4 µM in the experiment on UO-31 renal. Also, the TGI in the experiment with HOP-92 NSCLC was 83 µM; in the experiment with RXF 393 renal, over 100 µM; in the experiment with HCT-116 colon it was 43.8 µM; in the experiment with MOLT-4 leukemia it was 44.8 µM; in the experiment with HT29 colon it was over 100 µM; in the experiment on CAKI-1 renal, 47.7 µM. Also, the TGI was 80.1 µM with SF-295 CNS, over 100 µM in the experiment on A498 renal and over 100 µM with UO-31 renal.

The record behind these values is PubChem BioAssay (NCI).
